# In patent US9462805B2, “Herbicide-resistant proteins, encoding genes, and uses thereof” (Beijing Dabeinong Technology Group Co., Ltd., priority 2012, dated 2016):
# Key:
# [1] = tested on: Arabidopsis T1 plants transformed with 24DT02 nucleotide sequence; test: Herbicide resistance effect test of transgenic Arabidopsis T1 plants (24DT02); format: in vivo, Arabidopsis thaliana; conditions: number of T1 plants, genotype 24DT02; for Highly resistant: 560 g ae/ha (1-fold field concentration) sprayed, growth consistent with blank solvent 7 days after spraying; for Moderately resistant / Non-resistant / Lowly resistant: 560 g ae/ha sprayed; for Moderately resistant: curly rosette leaves 7 days after spraying; for Non-resistant: dead 14 days after spraying; for Lowly resistant: incapable of bolting 14 days after spraying
# Method: (§1) On 7 days after planting (DAP) and 11 DAP respectively, the T1 plants (cotyledon stage and 2-4 leaves stage, respectively) were sprayed with 0.2% of Liberty herbicide solution (200 g ai/L glufosinate-ammonium) using DeVilbiss compressed air nozzle at a spraying volume of 10 ml/disc (703 L/ha) so as to provide effective amount of glufosinate-ammonium (280 g ai/ha) for each application. The survival plants (actively growing plants) were verified 4 to 7 days after the last spraying and transferred into the square pot (7 cm×7 cm) made from vermiculite and horses dung (3-5 plants per pot). The transplanted plants were covered with moisturizing mask for 3-4 days and placed in culture room at 22° C. or directly into the greenhouse as described above. Then the mask was removed and the plants were planted in greenhouse (22±5° C., 50±30% RH, 14 hours of lighting: 10 hours of darkness, minimum […] natural light+complement light) at least one day before testing the ability of 24DT02 to provide the resistance to phenoxy auxin herbicide.
# (§2) 24DT02 gene was used to transform Arabidopsis for the first time. At first, T1 transformants were selected from the background of un-transformed seeds, using glufosinate-ammonium selection scheme. About 40000 T1 seeds were screened among which 195 strains of T1 generation positive transformants (PAT gene) were identified, i.e. the transformation efficiency was about 0.5%. Herbicide resistance effect tests to 2,4-D dimethyl ammonium salt and agroxone of Arabidopsis T1 plants transformed with 24DT02 nucleotide sequence, substituted 24DT02 nucleotide sequence, truncated 24DT02 nucleotide sequence, added 24DT02 nucleotide sequence, control nucleotide sequence respectively and wild-type Arabidopsis plants were performed after 18 days of planting.
# (§3) Arabidopsis T1 plants transformed with 24DT02 nucleotide sequence, substituted 24DT02 nucleotide sequence, truncated 24DT02 nucleotide sequence, added 24DT02 nucleotide sequence and control nucleotide sequence respectively and wild-type Arabidopsis plants were sprayed with 2,4-D dimethyl ammonium salt (560 g ae/ha, 1-fold concentration in field), agroxone (560 g ae/ha, 1-fold concentration in field) and blank solvent (water). Resistance conditions of the plants were counted 7 days and 14 days after spraying. Plants with growth conditions consistent with blank solvent (water) 7 days after spaying were classified as highly resistant plants; Plants with curly rosette leaves 7 days after spaying were classified as moderately resistant plants; Plants incapable of bolting 14 days after spaying were classified as low-resistant plants and the dead plants 14 days after spaying were classified as non-resistant plants. Because each Arabidopsis T1 plant was an independent transformation event, significant differences of individual T1 responses were expected under a given dose.
# [2] = tested on: Arabidopsis T1 plants transformed with control nucleotide sequence; test: Herbicide resistance effect test of Arabidopsis T1 plants (control sequence); format: in vivo, Arabidopsis thaliana; conditions: number of T1 plants, 560 g ae/ha sprayed; for Highly resistant: genotype Control (control sequence), growth consistent with blank solvent 7 days after spraying; for Moderately resistant / Non-resistant / Lowly resistant: genotype Control; for Moderately resistant: curly rosette leaves 7 days after spraying; for Non-resistant: dead 14 days after spraying; for Lowly resistant: incapable of bolting 14 days after spraying
# Method: as §1, §2, §3
# [3] = tested on: Arabidopsis; test: Effective dose distinguishing sensitive from resistant Arabidopsis; format: in vivo
Compound,Highly resistant [1],Moderately resistant [1],Non-resistant [1],Lowly resistant [1],Highly resistant [2],Moderately resistant [2],Non-resistant [2],Lowly resistant [2],effective dose to distinguish the sensitive plants from plants with average resistance [3] [g ae/ha]
"CNC.O=C(O)COc1ccc(Cl)cc1Cl [2,4-D dimethyl ammonium salt]",9,4,5,0,0,0,18,0,–
Cc1cc(Cl)ccc1OCC(=O)O [agroxone],8,6,4,2,0,0,17,0,50
